Values quoted from earlier work, collected in patent US20250345298A1, “APOE4 CORRECTORS AND METHODS OF USE” (Alzheon, Inc., priority 2022, published 2025).

| SMILES | safety in human subjects | efficacy in Alzheimer's disease trials (human clinical trials for AD) |
| --- | --- | --- |
| CC(C)[C@H](N)C(=O)NCCCS(=O)(=O)O [ALZ-801, valyl-3-amino-1-propanesulfonic acid] | safe | – |
| NCCCS(=O)(=O)O [Tramiprosate, 3-amino-1-propanesulfonic acid] | safe | suggested efficacy in at least some patients |
